# From US20190298650A1, “FORMULATION AND COMPOSITION FOR PREVENTING AND/OR DISSOLVING BIOFILM ON THE SKIN OF A DOMESTIC ANIMAL” (Dechra Veterinary Products LLC, priority 2018, published 2019)
# Tests used:
# [1] = system: Pseudomonas spp isolates from clinical canine otitis cases (biofilm); assay: Biofilm breaking assay (crystal violet OD570 on a 24 h pre-formed biofilm); format: cell-based; settings: only NAC 5 mg/mL, 14 isolates
# Description: One hundred Pseudomonas spp isolates from clinical canine otitis cases from the UK (96), Dubai (3) and Malta (1) were submitted to NationWide Laboratories Knutton (CAPL) for routine culture and susceptibility testing over a 12 month period. Four isolates were from two dogs with bilateral otitis. […] Isolates were then stored frozen of beads (ProLab UK) at -20° C. […] Negative control wells, in triplicate, contained 180 μL of LBB and 20 μL of distilled, sterile water. Plates were then incubated for 24 hours at 37° C. Contents of the wells were discarded prior to washing three times in phosphate buffered saline (PBS) at pH 7.2. […] 100 μL of Luria-Bertani enrichment broth (LBB) and 100 μL of sterile, distilled water for negative control. […] For the biofilm breaking assay the following dilutions where tested. The dilutions were made using a Broth (LBB). […] Plates were then incubated for another 24 hours period. Contents of the wells were discarded prior to washing three times in phosphate buffered saline (PBS) at pH 7.2. […] The contents were removed by micropipetting before plates rinsed thoroughly under running water. […] Plates were covered to prevent evaporation.
# [2] = system: Pseudomonas spp isolates from clinical canine otitis cases; assay: Biofilm prevention assay (MIC read visually, then crystal violet OD570); format: cell-based; settings: 28 isolates, LBB, 24 h at 37° C., NAC alone
# Description: One hundred Pseudomonas spp isolates from clinical canine otitis cases from the UK (96), Dubai (3) and Malta (1) were submitted to NationWide Laboratories Knutton (CAPL) for routine culture and susceptibility testing over a 12 month period. Four isolates were from two dogs with bilateral otitis.
# The dilutions were made using a Broth (LBB).
# Contents of the wells were discarded prior to washing three times in phosphate buffered saline (PBS) at pH 7.2. […] The contents were removed by micropipetting before plates rinsed thoroughly under running water. […] Plates were covered to prevent evaporation.
smiles,measurement,setting,value
"CC(=O)N[C@@H](CS)C(=O)O [NAC, (2R)-2-acetamido-3-sulfanylpropanoic acid]",optical density (OD570) Max.,[1],1.40
same,optical density (OD570) Mean,[1],0.38
same,optical density (OD570) Median,[1],0.26
same,optical density (OD570) Min.,[1],−0.03
same,MIC,[2],50 mg/mL
